# US20050245455A1, “Gonadotropin releasing hormone antagonists in gel-forming concentrations” (priority 2001, published 2005)
# Where a SMILES comes first, the peptide text is derived from it. [ ]: non-standard residue; d: D form. The star is where a group is joined. dPhe(4-NHCONH2) = NC(=O)Nc1ccc(C[C@@H](N)C(=O)O)cc1; Dihydroorotyl(S) = O=C1C[C@@H](C(=O)*)NC(=O)N1; dPhe(4-Cl) = N[C@H](Cc1ccc(Cl)cc1)C(=O)O; Phe(4-NH2) = Nc1ccc(C[C@H](N)C(=O)O)cc1; d2Nal = N[C@H](Cc1ccc2ccccc2c1)C(=O)O; Lys(iPr) = CC(C)NCCCC[C@H](N)C(=O)O; d3Pal = N[C@H](Cc1cccnc1)C(=O)O
# Settings: dog, in vivo, sc
compound,measurement,value
"CC(=O)N[C@H](Cc1ccc2ccccc2c1)C(=O)N[C@H](Cc1ccc(Cl)cc1)C(=O)N[C@H](Cc1cccnc1)C(=O)N[C@@H](CO)C(=O)N[C@@H](Cc1ccc(NC(=O)[C@@H]2CC(=O)NC(=O)N2)cc1)C(=O)N[C@H](Cc1ccc(NC(N)=O)cc1)C(=O)N[C@@H](CC(C)C)C(=O)N[C@@H](CCCCNC(C)C)C(=O)N1CCC[C@H]1C(=O)N[C@H](C)C(N)=O [Peptide 1, Ac-DNal-DCpa-DPal-Ser-Aph(L-Hor)-DAph(CONH2)-Leu-Lys(iPr)-Pro-DAla-NH2] (Ac-[d2Nal][dPhe(4-Cl)][d3Pal]S[Phe(4-NH2)](Dihydroorotyl(S))[dPhe(4-NHCONH2)]L[Lys(iPr)]P[dA]-NH2)","Fraction of the total dose absorbed, subcutaneous compared to intramuscular administration",almost twice as high
